Reference: US20180200257A1, “METHODS FOR THE TREATMENT OF INFLAMMATORY DISORDERS” (Galapagos NV, priority 2015, published 2018)

Test system: subjects with moderately to severely active RA who have an inadequate response to methotrexate (MTX)
Assay: Study 2 (monotherapy) - Aspartate Aminotransferase (AST) levels
Assay type: in vivo, human
Source text: Randomized, double-blind, placebo-controlled, multicenter, phase IIb dose finding study of Compound 1 (dosed as a [Compound 1:HCl:3H2O]) administered for 24 weeks as monotherapy to subjects with moderately to severely active rheumatoid arthritis who have an inadequate response to methotrexate alone
Double-blind, placebo-controlled, monotherapy study in subjects with moderately to severely active RA who have an inadequate response to methotrexate (MTX) (oral or parenteral).
280 subjects randomized to one of 3 doses of Compound 1 (dosed as a [Compound 1:HCl:3H2O]) or to placebo, given once daily (q.d.).
Twelve weeks of treatment with Compound 1 (dosed as a [Compound 1:HCl:3H2O]) at 50 mg, 100 mg, or 200 mg q.d.; or placebo. At Week 12, all subjects on placebo and the subjects on the 50 mg dose who have not achieved 20% improvement in swollen joint count (SJC66) and tender joint count (TJC68) will be assigned to 100 mg q.d. in a blinded fashion and will continue treatment until Week 24. Subjects in the other groups will maintain their randomized treatment until Week 24.
AST levels determination is available at Quest Diagnostics, Clinical Trials, Quest House, 125-135 Staines Road, Hounslow, Middlesex, TW3 3JB, United Kingdom under Catalogue n#84450. For Study 3, the data are obtained at BARC Europe, 3B,Industrie Park, Zwijnaarde, B-9052 Ghent, Belgium.
AST catalyzes the transamination of aspartate and 2-oxoglutarate, forming L-glutamate and oxalacetate. The oxalacetate is reduced to L-malate by malate dehydrogenase, whilst NADH is converted to NAD+, measured spectrophotometrically. Guidelines for the AST value have been issued by the association for Clinical Biochemistry and Laboratory Medicine, 130-132 Tooley Street LONDON SE1 2TU, united Kingdom, wherein the AST value should be below 34 U/l in Female and below 45 U/L in male. As disclosed in the respective study protocols for Study 1 or 2, at week 12, depending on the outcome of their treatment, the subjects may be continued in their initial treatment course, or reassigned to another treatment group in a randomized blinded fashion until week 24. Therefore, the number of subjects (N) for the period of either 12 weeks, or 24 weeks is provided to reflect this redistribution at week 12.
Subjects in the other groups maintained their randomized treatment until Week 24.

[1] = 12 weeks results, 50 mg q.d., week 1
[2] = 12 weeks results, 50 mg q.d., week 2
[3] = 12 weeks results, 50 mg q.d., week 4
[4] = 12 weeks results, 50 mg q.d., week 8
[5] = 12 weeks results, 50 mg q.d., week 12
[6] = 12 weeks results, 100 mg q.d., week 1
[7] = 12 weeks results, 100 mg q.d., week 2
[8] = 12 weeks results, 100 mg q.d., week 4
[9] = 12 weeks results, 100 mg q.d., week 8
[10] = 12 weeks results, 100 mg q.d., week 12
[11] = 12 weeks results, 200 mg q.d., week 1
[12] = 12 weeks results, 200 mg q.d., week 2
[13] = 12 weeks results, 200 mg q.d., week 4
[14] = 12 weeks results, 200 mg q.d., week 8
[15] = 12 weeks results, 200 mg q.d., week 12
[16] = 24 weeks results, 50 mg q.d. non responders switching to 100 mg q.d. at week 12, week 1
[17] = 24 weeks results, 50 mg q.d. non responders switching to 100 mg q.d. at week 12, week 2
[18] = 24 weeks results, 50 mg q.d. non responders switching to 100 mg q.d. at week 12, week 4
[19] = 24 weeks results, 50 mg q.d. non responders switching to 100 mg q.d. at week 12, week 8
[20] = 24 weeks results, 50 mg q.d. non responders switching to 100 mg q.d. at week 12, week 12
[21] = 24 weeks results, 50 mg q.d. non responders switching to 100 mg q.d. at week 12, week 16
[22] = 24 weeks results, 50 mg q.d. non responders switching to 100 mg q.d. at week 12, week 20
[23] = 24 weeks results, 50 mg q.d. non responders switching to 100 mg q.d. at week 12, week 24
[24] = 24 weeks results, 50 mg q.d. responders, week 1
[25] = 24 weeks results, 50 mg q.d. responders, week 2
[26] = 24 weeks results, 50 mg q.d. responders, week 4
[27] = 24 weeks results, 50 mg q.d. responders, week 8
[28] = 24 weeks results, 50 mg q.d. responders, week 12
[29] = 24 weeks results, 50 mg q.d. responders, week 16
[30] = 24 weeks results, 50 mg q.d. responders, week 20
[31] = 24 weeks results, 50 mg q.d. responders, week 24
[32] = 24 weeks results, 100 mg q.d., week 1
[33] = 24 weeks results, 100 mg q.d., week 2
[34] = 24 weeks results, 100 mg q.d., week 4
[35] = 24 weeks results, 100 mg q.d., week 8
[36] = 24 weeks results, 100 mg q.d., week 12
[37] = 24 weeks results, 100 mg q.d., week 16
[38] = 24 weeks results, 100 mg q.d., week 20
[39] = 24 weeks results, 100 mg q.d., week 24
[40] = 24 weeks results, 200 mg q.d., week 1
[41] = 24 weeks results, 200 mg q.d., week 2
[42] = 24 weeks results, 200 mg q.d., week 4
[43] = 24 weeks results, 200 mg q.d., week 8
[44] = 24 weeks results, 200 mg q.d., week 12
[45] = 24 weeks results, 200 mg q.d., week 16
[46] = 24 weeks results, 200 mg q.d., week 20
[47] = 24 weeks results, 200 mg q.d., week 24
[48] = 24 weeks results, placebo switching to 100 mg q.d. at week 12, week 16
[49] = 24 weeks results, placebo switching to 100 mg q.d. at week 12, week 20
[50] = 24 weeks results, placebo switching to 100 mg q.d. at week 12, week 24

Compound: O=C(Nc1nc2cccc(-c3ccc(CN4CCS(=O)(=O)CC4)cc3)n2n1)C1CC1 [Compound 1, cyclopropanecarboxylic acid {5-[4-(1,1-dioxo-thiomorpholin-4-ylmethyl)-phenyl]-[1,2,4]triazolo[1,5-a]pyridin-2-yl}-amide]
- Study 2 - AST Mean CFB [1]: −1.8 IU/L
- Study 2 - AST Mean percentage CFB [1]: 0.54%
- Study 2 - AST Mean CFB [2]: −2.0 IU/L
- Study 2 - AST Mean percentage CFB [2]: 1.54%
- Study 2 - AST Mean CFB [3]: −1.7 IU/L
- Study 2 - AST Mean percentage CFB [3]: −0.21%
- Study 2 - AST Mean CFB [4]: −2.5 IU/L
- Study 2 - AST Mean percentage CFB [4]: −0.42%
- Study 2 - AST Mean CFB [5]: −0.2 IU/L
- Study 2 - AST Mean percentage CFB [5]: 2.69%
- Study 2 - AST Mean CFB [6]: 0.4 IU/L
- Study 2 - AST Mean percentage CFB [6]: 8.99%
- Study 2 - AST Mean CFB [7]: 1.3 IU/L
- Study 2 - AST Mean percentage CFB [7]: 9.02%
- Study 2 - AST Mean CFB [8]: 1.3 IU/L
- Study 2 - AST Mean percentage CFB [8]: 15.05%
- Study 2 - AST Mean CFB [9]: 1.9 IU/L
- Study 2 - AST Mean percentage CFB [9]: 18.05%
- Study 2 - AST Mean CFB [10]: 1.9 IU/L
- Study 2 - AST Mean percentage CFB [10]: 16.02%
- Study 2 - AST Mean CFB [11]: 0.1 IU/L
- Study 2 - AST Mean percentage CFB [11]: 7.59%
- Study 2 - AST Mean CFB [12]: 0.9 IU/L
- Study 2 - AST Mean percentage CFB [12]: 11.22%
- Study 2 - AST Mean CFB [13]: 0.8 IU/L
- Study 2 - AST Mean percentage CFB [13]: 13.13%
- Study 2 - AST Mean CFB [14]: 1.4 IU/L
- Study 2 - AST Mean percentage CFB [14]: 16.67%
- Study 2 - AST Mean CFB [15]: 1.1 IU/L
- Study 2 - AST Mean percentage CFB [15]: 15.21%
- Study 2 - AST Mean CFB [16]: −0.4 IU/L
- Study 2 - AST Mean percentage CFB [16]: −1.15%
- Study 2 - AST Mean CFB [17]: 0.3 IU/L
- Study 2 - AST Mean percentage CFB [17]: 2.57%
- Study 2 - AST Mean CFB [18]: 0.3 IU/L
- Study 2 - AST Mean percentage CFB [18]: 2.84%
- Study 2 - AST Mean CFB [19]: 0.0 IU/L
- Study 2 - AST Mean percentage CFB [19]: 1.89%
- Study 2 - AST Mean CFB [20]: 0.8 IU/L
- Study 2 - AST Mean percentage CFB [20]: 7.36%
- Study 2 - AST Mean CFB [21]: 0.8 IU/L
- Study 2 - AST Mean percentage CFB [21]: 5.82%
- Study 2 - AST Mean CFB [22]: 1.8 IU/L
- Study 2 - AST Mean percentage CFB [22]: 13.66%
- Study 2 - AST Mean CFB [23]: 2.6 IU/L
- Study 2 - AST Mean percentage CFB [23]: 17.42%
- Study 2 - AST Mean CFB [24]: −2.1 IU/L
- Study 2 - AST Mean percentage CFB [24]: 0.98%
- Study 2 - AST Mean CFB [25]: −2.6 IU/L
- Study 2 - AST Mean percentage CFB [25]: 1.26%
- Study 2 - AST Mean CFB [26]: −2.3 IU/L
- Study 2 - AST Mean percentage CFB [26]: −1.03%
- Study 2 - AST Mean CFB [27]: −3.2 IU/L
- Study 2 - AST Mean percentage CFB [27]: −1.06%
- Study 2 - AST Mean CFB [28]: −0.5 IU/L
- Study 2 - AST Mean percentage CFB [28]: 1.37%
- Study 2 - AST Mean CFB [29]: 0.5 IU/L
- Study 2 - AST Mean percentage CFB [29]: 8.81%
- Study 2 - AST Mean CFB [30]: 0.5 IU/L
- Study 2 - AST Mean percentage CFB [30]: 7.58%
- Study 2 - AST Mean CFB [31]: −0.5 IU/L
- Study 2 - AST Mean percentage CFB [31]: 5.14%
- Study 2 - AST Mean CFB [32]: 0.4 IU/L
- Study 2 - AST Mean percentage CFB [32]: 8.99%
- Study 2 - AST Mean CFB [33]: 1.3 IU/L
- Study 2 - AST Mean percentage CFB [33]: 9.02%
- Study 2 - AST Mean CFB [34]: 1.3 IU/L
- Study 2 - AST Mean percentage CFB [34]: 15.05%
- Study 2 - AST Mean CFB [35]: 1.9 IU/L
- Study 2 - AST Mean percentage CFB [35]: 18.05%
- Study 2 - AST Mean CFB [36]: 1.9 IU/L
- Study 2 - AST Mean percentage CFB [36]: 16.02%
- Study 2 - AST Mean CFB [37]: 5.4 IU/L
- Study 2 - AST Mean percentage CFB [37]: 23.15%
- Study 2 - AST Mean CFB [38]: 2.4 IU/L
- Study 2 - AST Mean percentage CFB [38]: 23.16%
- Study 2 - AST Mean CFB [39]: 1.5 IU/L
- Study 2 - AST Mean percentage CFB [39]: 15.75%
- Study 2 - AST Mean CFB [40]: 0.1 IU/L
- Study 2 - AST Mean percentage CFB [40]: 7.59%
- Study 2 - AST Mean CFB [41]: 0.9 IU/L
- Study 2 - AST Mean percentage CFB [41]: 11.22%
- Study 2 - AST Mean CFB [42]: 0.8 IU/L
- Study 2 - AST Mean percentage CFB [42]: 13.13%
- Study 2 - AST Mean CFB [43]: 1.4 IU/L
- Study 2 - AST Mean percentage CFB [43]: 16.67%
- Study 2 - AST Mean CFB [44]: 1.1 IU/L
- Study 2 - AST Mean percentage CFB [44]: 15.21%
- Study 2 - AST Mean CFB [45]: 2.2 IU/L
- Study 2 - AST Mean percentage CFB [45]: 21.14%
- Study 2 - AST Mean CFB [46]: 1.7 IU/L
- Study 2 - AST Mean percentage CFB [46]: 17.43%
- Study 2 - AST Mean CFB [47]: 1.4 IU/L
- Study 2 - AST Mean percentage CFB [47]: 17.74%
- Study 2 - AST Mean CFB [48]: 0.9 IU/L
- Study 2 - AST Mean percentage CFB [48]: 8.60%
- Study 2 - AST Mean CFB [49]: 2.2 IU/L
- Study 2 - AST Mean percentage CFB [49]: 16.10%
- Study 2 - AST Mean CFB [50]: 2.1 IU/L
- Study 2 - AST Mean percentage CFB [50]: 13.64%
